Where two headings read alike, the source gives them in different places. Values belong to the molecule of their own block, whether it stands above or below them. Starred links: 1 amine or outer side, 2 acyl side, 3 side chain; linkers in the order of their positions; H or OH if unused. Non-standard residues stand in square brackets, D forms with d. Residues, ends and D or L forms follow the SMILES beside them. No end group written: not given here. *: point of attachment. dAla(cis-4-NHCOPyz-cHex) = N[C@H](C[C@H]1CC[C@@H](NC(=O)c2cnccn2)CC1)C(=O)O; X4 = O=C(N[C@H]1CC[C@@H](C[C@@H](N[*:1])C(=O)[*:2])CC1)c1cccnc1; dPhe(4-Cl) = N[C@H](Cc1ccc(Cl)cc1)C(=O)O; d2Nal = N[C@H](Cc1ccc2ccccc2c1)C(=O)O; Lys(iPr) = CC(C)NCCCC[C@H](N)C(=O)O; Orn(iPr) = CC(C)NCCC[C@H](N)C(=O)O; d3Pal = N[C@H](Cc1cccnc1)C(=O)O; Nicotinoyl = O=C(c1cccnc1)*; Picolinoyl = O=C(c1ccccn1)*
Key:
rat mast cells = experiment: in vitro histamine release test; type: cell-based; details: for In Vitro Histamine Release ED50: rat mast cells, ± SEM
Experimental: The antiovulatory activity, AOA, in rats was determined as described by Humphries et al. (12). Antiovulation assays were performed by counting, on estrus, the number of ova shed by 4-day cycling rats after a single sc injection of the LH-RH analogue in corn oil was administered between 12 and 12:30 p.m. on […]. The control rats received 0.3 mL of the vehicle. The wheal test was performed by intradermally injecting 10 ug of peptide in 100 ul of saline into anaesthesized rats, measuring the ideally circular wheal response and calculating the area. The in vitro histamine release test was done as described by Karten et al. (4). A suspension of rat mast cells was added to increasing concentrations of peptide and the mixture was incubated for a few minutes followed by centrifugation to collect the histamine in the supernatant. A PIPES (piperazine-N,N'-bis[2-ethanesulfonic acid]) medium buffered at pH 7.4 containing NaCl 119 mM, KCl 5 mM, PIPES 25 mM, NaOH 40 mM, glucose 5.6 mM, CaCl2 1 mM, and 0.1% bovine serum albumin was used. This was designated as PIPES AC. Peptides were dissolved in double distilled H2 O at a concentration of 2 mg/ml and stored at -20° C. They were thawed just prior to testing, diluted in PIPES AC and prewarmed for five minutes at 37° C. Peptides studied were stable to heating at 56° C. for two hours, and to freezing and thawing.
Peritoneal cells were collected from male Sprague-Dawley rats weighing 200 to 250 gm and purchased from Harlan (Madison, Wis.). After euthanasia by CO2, the peritoneal cavity was washed with 50 ml PIPES AC medium containing 20 units of heparin. Following centrifugation at 200×g for eight minutes at 4° C., cells were washed again and finally resuspended to a concentration of 8 to 24×10^5 total leukocytes/ml in PIPES AC. This suspension contained approximately 5-10% mast cells. Washed cells were used immediately after collection and were prewarmed for five minutes at 37° C. prior to pipetting 0.25 ml aliquots into 12×75 mm polystyrene tubes containing 0.25 ml of diluted peptide. Mixtures were incubated for 15 minutes at 37° C. and the reaction stopped by centrifugation at 400×g for 15 minutes at 4° C. The cell supernatants were assayed for histamine content by the automated fluorometric assay procedure. See, Siraganian, R. P., "An automated continuous flow system for the extraction and fluorometric analysis of histamine." Anal. Biochem. 57:383 (1974); and Siraganian, R. P. and Hook, W. A., "Histamine release and assay methods for the study of human allergy," In Manual of Clinical Immunology, 3rd ed., N. R. Rose, H. Friedman, and J. L. Fahey (Eds.), Amer. Soc. for Microbiology, Washington (1986) p. 808.

anaesthesized rats [1] = experiment: wheal test, intradermal injection; type: in vivo, rat; parameters: Wheal (wheal response): unit not given here; details: for Wheal (wheal response): Table XIV and text, unit not given; for Wheal: Table I; for Wheal / Wheal Area: 10 ug peptide intradermally
Procedure, shortened: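 Anaesthetized rats given intradermal injection of 10 ug peptide in 100 ul saline; area of the wheal calculated from its diameter.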

anaesthesized rats [2] = details: From Reference 1; cited from earlier work
rats = details: reported in ref. 16, cited from earlier work
26 days old female rats = experiment: oral activity: serum LH and FSH after agonist [D-Qal^6]-LHRH; type: in vivo, rat; details: for LH: 2 hours before 10 ng agonist; for FSH / Serum LH: -2 hr, agonist 10 ng sc, +2 hours
Experimental: For the determination of duration of action, the antagonist was administered s.c. or orally to 26 days old female rats at a specific time before administration of the agonist, [D-Qal^6 ]-LHRH. The serum levels of rat luteinizing hormone (LH) and rat follicle stimulating hormone (FSH) were then measured 2 hours after the agonist administration by RIA. The oral administration was done through force-feeding with feeding tubes.

[3] = test system: dispersed pituitary cell culture; experiment: dispersed pituitary cell culture assay; type: cell-based

Molecule: [N-Ac-D-2-Nal^1,D-4-F-Phe^2,D-Trp^3,D-Arg^6 ]-LHRH
In Vitro Histamine Release ED50 (rat mast cells): 0.17 µg/mL
In Vitro Histamine Release ED50 (rat mast cells; listed as [N-Ac-D-2-Nal^1,D-pFPhe^2,D-Trp^3,D-Arg^6 ]-LHRH): about 0.17 μg/ml
In Vitro Histamine Release ED50 (rat mast cells; listed as standard compound): 0.1 to 0.2 µg/mL
ED 50 (histamine release), starred test series (rat mast cells; test series in which the standard compound had ED 50 0.46 instead of the usual 0.1-0.2): 0.46 µg/mL

Wheal (wheal response) (anaesthesized rats [1]): 123.0
Molecule: CC(=O)N[C@H](Cc1ccc2ccccc2c1)C(=O)N[C@H](Cc1ccc(Cl)cc1)C(=O)N[C@H](Cc1cccnc1)C(=O)N[C@@H](CO)C(=O)N[C@@H](CCCCNC(=O)c1ccccn1)C(=O)N[C@H](CCCCNC(=O)c1ccccn1)C(=O)N[C@@H](CC(C)C)C(=O)N[C@@H](CCCCNC(C)C)C(=O)N1CCC[C@H]1C(=O)N[C@H](C)C(N)=O [IBR 25147, [N-Ac-D-2-Nal^1,D-pClPhe^2,D-3-Pal^3,PicLys^5,D-PicLys^6, ILys^8,D-Ala^10]-LHRH] (Ac-[d2Nal][dPhe(4-Cl)][d3Pal]SK(Picolinoyl)[dK](Picolinoyl)L[Lys(iPr)]P[dA]-NH2)
Wheal Area (anaesthesized rats [2]): 123 ± 0 mm^2 /10 μg

Molecule: [N-Ac-D-pClPhe^1,2,D-Trp^3,D-Arg^6,D-Ala^10 ]-LHRH [VIII-25]
rats ovulated/total rats (rats; oral dose 500 ug): 9/11
rats ovulated/total rats (rats; oral dose 1000 ug): 4/11
rats ovulated/total rats (rats; oral dose 2000 ug): 0/11
LH (26 days old female rats; oral 30 ug): 39 ± 6 ng/mL
LH (26 days old female rats; oral 100 ug): 26 ± 7 ng/mL
FSH (26 days old female rats; oral in water 10 μg): 1794 ± 329 ng/mL
Serum LH (26 days old female rats; oral in water 10 μg): 59 ± 11 ng/mL
FSH (26 days old female rats; oral in water 30 μg): 1470 ± 190 ng/mL
Serum LH (26 days old female rats; oral in water 30 μg): 39 ± 6 ng/mL
FSH (26 days old female rats; oral in water 100 μg): 1161 ± 277 ng/mL
Serum LH (26 days old female rats; oral in water 100 μg): 26 ± 7 ng/mL

Molecule: CC(=O)N[C@H](Cc1ccc2ccccc2c1)C(=O)N[C@H](Cc1ccc(Cl)cc1)C(=O)N[C@H](Cc1cccnc1)C(=O)N[C@@H](CO)C(=O)N[C@@H](CCCCNC(=O)c1ccccn1)C(=O)N[C@H](CCCCNC(=O)c1ccccn1)C(=O)N[C@@H](CC(C)C)C(=O)N[C@@H](CCCCNC(C)C)C(=O)N1CCC[C@H]1C(=O)N[C@H](C)C(N)=O (Ac-[d2Nal][dPhe(4-Cl)][d3Pal]SK(Picolinoyl)[dK](Picolinoyl)L[Lys(iPr)]P[dA]-NH2)
histamine release (in words) (rat mast cells): released no more histamine than do "super agonists" of LHRH

Wheal (anaesthesized rats [1]): 132.7 mm^2 /10
Wheal (wheal response) (anaesthesized rats [1]): 132.7
histamine release (in words) (rat mast cells): released remarkably little histamine
Molecule: CC(=O)N[C@H](Cc1ccc2ccccc2c1)C(=O)N[C@H](Cc1ccc(Cl)cc1)C(=O)N[C@H](Cc1cccnc1)C(=O)N[C@@H](CO)C(=O)N[C@@H](CCCCNC(=O)c1cccnc1)C(=O)N[C@H](CCCCNC(=O)c1cccnc1)C(=O)N[C@@H](CC(C)C)C(=O)N[C@@H](CCCCNC(C)C)C(=O)N1CCC[C@H]1C(=O)N[C@H](C)C(N)=O [Antide, [N-Ac-D-2-Nal^1, D-pClPhe^2, D-3-Pal^3, NicLys^5, D-NicLys^6, ILys^8, D-Ala^10]-LHRH] (Ac-[d2Nal][dPhe(4-Cl)][d3Pal]SK(Nicotinoyl)[dK](Nicotinoyl)L[Lys(iPr)]P[dA]-NH2)

Molecule: luteinizing hormone releasing hormone (QHWSYGLRPG; ends and bridges not checked; UniProt P01148 24-33, looked up) [LHRH, natural hormone used as agonist in the pituitary cell culture assay]
FSH ([3]; LHRH 0.1 nM alone): 221 ± 18 ng/mL
RLH ([3]; LHRH 0.1 nM alone): 40 ± 7 ng/mL
FSH ([3]; LHRH 0.3 nM alone): 562 ± 48 ng/mL
RLH ([3]; LHRH 0.3 nM alone): 80 ± 1 ng/mL
FSH ([3]; LHRH 1.0 nM alone): 802 ng/mL
RLH ([3]; LHRH 1.0 nM alone): 118 ng/mL
FSH ([3]; LHRH 3.0 nM alone): 646 ± 123 ng/mL
RLH ([3]; LHRH 3.0 nM alone): 150 ± 1 ng/mL
FSH ([3]; LHRH 10.0 nM alone): 602 ± 26 ng/mL
RLH ([3]; LHRH 10.0 nM alone): 141 ± 4 ng/mL
FSH ([3]; LHRH 30.0 nM alone): 557 ± 15 ng/mL
RLH ([3]; LHRH 30.0 nM alone): 152 ± 7 ng/mL

Wheal (anaesthesized rats [1]): 113.6 mm^2 /10
Molecule: CC(=O)N[C@H](Cc1ccc2ccccc2c1)C(=O)N[C@H](Cc1ccc(Cl)cc1)C(=O)N[C@H](Cc1cccnc1)C(=O)N[C@@H](CO)C(=O)N[C@@H](CCCCNC(=O)c1cccnc1)C(=O)N[C@H](C[C@H]1CC[C@@H](NC(=O)c2cccnc2)CC1)C(=O)N[C@@H](CC(C)C)C(=O)N[C@@H](CCCCNC(C)C)C(=O)N1CCC[C@H]1C(=O)N[C@H](C)C(N)=O [compound 25648] (Ac-[d2Nal][dPhe(4-Cl)][d3Pal]SK(Nicotinoyl)[X4]L[Lys(iPr)]P[dA]-NH2)

Wheal Area (anaesthesized rats [1]): 78.5 ± 0 mm^2 /10 μg
Molecule: CC(=O)N[C@H](Cc1ccc2ccccc2c1)C(=O)N[C@H](Cc1ccc(Cl)cc1)C(=O)N[C@H](Cc1cccnc1)C(=O)N[C@@H](CO)C(=O)N[C@@H](CCCCNC(=O)c1ccccn1)C(=O)N[C@H](CCCCNC(=O)c1ccccn1)C(=O)N[C@@H](Cc1c[nH]c2ccccc12)C(=O)N[C@@H](CCCCNC(C)C)C(=O)N1CCC[C@H]1C(=O)N[C@H](C)C(N)=O [compound 25935] (Ac-[d2Nal][dPhe(4-Cl)][d3Pal]SK(Picolinoyl)[dK](Picolinoyl)W[Lys(iPr)]P[dA]-NH2)

Wheal Area (anaesthesized rats [1]): 101.6 ± 2.2 mm^2 /10 μg
Molecule: CC(=O)N[C@H](Cc1ccc2ccccc2c1)C(=O)N[C@H](Cc1ccc(Cl)cc1)C(=O)N[C@H](Cc1cccnc1)C(=O)N[C@@H](CO)C(=O)N[C@@H](CCCCNC(=O)c1ccccn1)C(=O)N[C@H](C[C@H]1CC[C@@H](NC(=O)c2cnccn2)CC1)C(=O)N[C@@H](CC(C)C)C(=O)N[C@@H](CCCNC(C)C)C(=O)N1CCC[C@H]1C(=O)N[C@H](C)C(N)=O [IBR 26181] (Ac-[d2Nal][dPhe(4-Cl)][d3Pal]SK(Picolinoyl)[dAla(cis-4-NHCOPyz-cHex)]L[Orn(iPr)]P[dA]-NH2)

Wheal (anaesthesized rats [1]): 126.2 ± 8.8 mm^2 /10
Molecule: CC(=O)N[C@H](Cc1ccc2ccccc2c1)C(=O)N[C@H](Cc1ccc(Cl)cc1)C(=O)N[C@H](Cc1cccnc1)C(=O)N[C@@H](CO)C(=O)N[C@@H](CCCCNC(=O)c1cccnc1)C(=O)N[C@H](CCCCNC(=O)c1cccnc1)C(=O)N[C@@H](CC(C)C)C(=O)N[C@@H](CCCNC(=N)N)C(=O)N1CCC[C@H]1C(=O)N[C@H](C)C(N)=O [compound 24594] (Ac-[d2Nal][dPhe(4-Cl)][d3Pal]SK(Nicotinoyl)[dK](Nicotinoyl)LRP[dA]-NH2)

Wheal (wheal response) (anaesthesized rats [1]): 101.6 ± 2.2
Molecule: CC(=O)N[C@H](Cc1ccc2ccccc2c1)C(=O)N[C@H](Cc1ccc(Cl)cc1)C(=O)N[C@H](Cc1cccnc1)C(=O)N[C@@H](CO)C(=O)N[C@@H](CCCCNC(=O)c1ccccn1)C(=O)N[C@H](C[C@H]1CC[C@@H](NC(=O)c2cnccn2)CC1)C(=O)N[C@@H](CC(C)C)C(=O)N[C@@H](CCCNC(C)C)C(=O)N1CCC[C@H]1C(=O)N[C@H](C)C(N)=O [compound 26181] (Ac-[d2Nal][dPhe(4-Cl)][d3Pal]SK(Picolinoyl)[dAla(cis-4-NHCOPyz-cHex)]L[Orn(iPr)]P[dA]-NH2)

Wheal (anaesthesized rats [1]): 136.3 mm^2 /10
Molecule: CC(=O)N[C@H](Cc1ccc2ccccc2c1)C(=O)N[C@H](Cc1ccc(Cl)cc1)C(=O)N[C@H](Cc1cccnc1)C(=O)N[C@@H](CO)C(=O)N[C@@H](Cc1ccc(O)cc1)C(=O)N[C@H](CCCNC(=N)N)C(=O)N[C@@H](CC(C)C)C(=O)N[C@@H](CCCCNC(=O)c1cccnc1)C(=O)N1CCC[C@H]1C(=O)N[C@H](C)C(N)=O [compound 24749] (Ac-[d2Nal][dPhe(4-Cl)][d3Pal]SY[dR]LK(Nicotinoyl)P[dA]-NH2)

Source: patent US5763404A, “Methods for using LHRH antagonists with low histamine release” (priority 1995, dated 1998)
